Test results: patent US20040086901A1, “Database for analyzing gene function and method of analyzing gene function by dspa” (priority 2000, published 2004)

How the values were obtained:
Format in all cases: cell-based, mouse
[1] = tested on: NIH3T3 cells overexpressing Ha-ras; assay: MTT cell viability, drug sensitivity of Ha-ras overexpressing cells vs parental line; details: Ha-ras high-expressing cells / parental cell line, 3 to 4 days
Protocol: (§1) With regard to the function-known genes, the genes shown in the left column of Table 2 were used. With regard to the drugs, those shown in Table 1 were dissolved in DMSO to an extent of 100-fold of the maximum concentration for the search of the drugs and used. With regard to the cells, incubated NIH3T3 or ras-NIH3T3 cells were used.
(§2) Full-length cDNA of each function-known genes was incorporated into an expression vector (pRc-CMV, etc.) and transfected into NIH3T3 cells by a common method. Transformed cells were isolated using the resistance to G-418 as an index and the expression of the transfected gene in each cell was investigated by Western blotting method to select a highly expressing line.
(§3) Cell viabilities were measured according to the following procedures.
(§4) 1) From the 2nd to the 11th rows of a 96-well plate were filled with DMEM (50 μl). The 12th row was filled with 100 μl of DMEM.
(§5) 2) The 1st row was filled with 98 μl of DMEM.
(§6) 3) Drugs (2 μl each) were added into the 1st row.
(§7) 4) Continuous double-dilution was conducted from the 1st to the 9th rows. Fifty μl were taken out from the 9th row and discarded. The plate was preserved in a CO2 incubator.
(§8) 5) Cells (each high-expressing cells and the parental cell line) were detached from the medium using a trypsin solution, suspended in 10% CS-DMEM and transferred to a test tube and cell numbers (cell/ml) were counted.
(§9) 6) The cells were diluted to a concentration of 1×10^5 cells/ml, and 50 μl of the cell suspension were added to the 1st to the 11th rows of the plate followed by gently stirring.
(§10) 7) The plate was transferred to the CO2 incubator and incubated for 3 to 4 days.
(§11) 8) MTT (5 mg/ml in PBS) (10 μl) was added to the 1st to the 12th rows of the plate and incubated in the CO2 incubator at 37° C. for 4 hours.
(§12) 9) A reaction stop solution (0.04N HCl in isopropanol) (150 μl) was added followed by mixing well and being allowed to stand at room temperature for about 2 hours.
(§13) 10) Coloration of formazan which was a metabolite of the MTT dye was measured using a microplate reader. The measurement wavelength was 574 nm and the reference wavelength was 655 nm. The 10th and the 11th rows of the plate were 100% controls and the 12th row was a 0% control.
(§14) As an index for the sensitivity of highly gene-expressing cells and the parental cell line to various drugs, each of the IC40 values thereof was specified and ratios of the IC40 values were calculated. […] After that, logarithmic values of ratios of IC40 values were calculated from each gene.

[2] = tested on: NIH3T3 cells overexpressing Regucalcin; assay: MTT cell viability, Regucalcin overexpressing cells vs parental line; details: Regucalcin high-expressing cells / parental cell line, 3 to 4 days
Protocol: as §1, §2, §3, §4, §5, §6, §7, §8, §9, §10, §11, §12, §13
(§15) As an index for the sensitivity of highly gene-expressing cells and the parental cell line to various drugs, each of the IC40 values thereof was specified and ratios of the IC40 values were calculated. FIG. 2 and FIG. 3 are the examples where ratios of IC40 values were calculated from a curve showing the dependency on the concentration of the chemical versus the viability. After that, logarithmic values of ratios of IC40 values were calculated from each gene.

[3] = tested on: NIH3T3 cells overexpressing p33/ING1; assay: MTT cell viability, p33/ING1 overexpressing cells vs parental line; details: p33/ING1 high-expressing cells / parental cell line, 3 to 4 days
Protocol: as §1, §2, §3, §4, §5, §6, §7, §8, §9, §10, §11, §12, §13, §15

[4] = tested on: NIH3T3 cells overexpressing TK; assay: MTT cell viability, TK overexpressing cells vs parental line; details: TK high-expressing cells / parental cell line, 3 to 4 days
Protocol: as §1, §2, §3, §4, §5, §6, §7, §8, §9, §10, §11, §12, §13, §15

[5] = tested on: NIH3T3 cells overexpressing cystatin alpha; assay: MTT cell viability, cystatin alpha overexpressing cells vs parental line; details: cystatin alpha high-expressing cells / parental cell line, 3 to 4 days
Protocol: as §1, §2, §3, §4, §5, §6, §7, §8, §9, §10, §11, §12, §13, §15

[6] = tested on: NIH3T3 cells overexpressing RhoA; assay: MTT cell viability, RhoA overexpressing cells vs parental line; details: RhoA high-expressing cells / parental cell line, 3 to 4 days
Protocol: as §1, §2, §3, §4, §5, §6, §7, §8, §9, §10, §11, §12, §13, §15

[7] = tested on: NIH3T3 cells overexpressing v-src; assay: MTT cell viability, v-src overexpressing cells vs parental line; details: v-src high-expressing cells / parental cell line, 3 to 4 days
Protocol: as §1, §2, §3, §4, §5, §6, §7, §8, §9, §10, §11, §12, §13, §15

[8] = tested on: NIH3T3 cells overexpressing CaMKIIa; assay: MTT cell viability, CaMKIIa overexpressing cells vs parental line; details: CaMKIIa high-expressing cells / parental cell line, 3 to 4 days
Protocol: as §1, §2, §3, §4, §5, §6, §7, §8, §9, §10, §11, §12, §13, §14

[9] = tested on: NIH3T3 cells overexpressing caspase-1; assay: MTT cell viability, caspase-1 overexpressing cells vs parental line; details: caspase-1 high-expressing cells / parental cell line, 3 to 4 days
Protocol: as §1, §2, §3, §4, §5, §6, §7, §8, §9, §10, §11, §12, §13, §14

[10] = tested on: NIH3T3 cells overexpressing CP-antisense; assay: MTT cell viability, CP-antisense cells vs parental line; details: 3 to 4 days
Protocol: as §1, §2, §3, §4, §5, §6, §7, §8, §9, §10, §11, §12, §13, §15

[11] = tested on: NIH3T3 cells overexpressing caspase-2; assay: MTT cell viability, caspase-2 overexpressing cells vs parental line; details: caspase-2 high-expressing cells / parental cell line, 3 to 4 days
Protocol: as §1, §2, §3, §4, §5, §6, §7, §8, §9, §10, §11, §12, §13, §15

[12] = tested on: NIH3T3 cells overexpressing coup; assay: MTT cell viability, coup overexpressing cells vs parental line; details: coup high-expressing cells / parental cell line, 3 to 4 days
Protocol: as §1, §2, §3, §4, §5, §6, §7, §8, §9, §10, §11, §12, §13, §15

[13] = tested on: NIH3T3 cells overexpressing HNF3b; assay: MTT cell viability, HNF3b overexpressing cells vs parental line; details: HNF3b high-expressing cells / parental cell line, 3 to 4 days
Protocol: as §1, §2, §3, §4, §5, §6, §7, §8, §9, §10, §11, §12, §13, §14

[14] = tested on: NIH3T3 cells overexpressing p38-DN; assay: MTT cell viability, p38-DN overexpressing cells vs parental line; details: p38-DN high-expressing cells / parental cell line, 3 to 4 days
Protocol: as §1, §2, §3, §4, §5, §6, §7, §8, §9, §10, §11, §12, §13, §14

[15] = tested on: NIH3T3 cells overexpressing DAN; assay: MTT cell viability, DAN overexpressing cells vs parental line; details: DAN high-expressing cells / parental cell line, 3 to 4 days
Protocol: as §1, §2, §3, §4, §5, §6, §7, §8, §9, §10, §11, §12, §13, §15

[16] = tested on: NIH3T3 cells overexpressing cystatin E; assay: MTT cell viability, cystatin E overexpressing cells vs parental line; details: cystatin E high-expressing cells / parental cell line, 3 to 4 days
Protocol: as §1, §2, §3, §4, §5, §6, §7, §8, §9, §10, §11, §12, §13, §15

[17] = tested on: NIH3T3 cells overexpressing caspase-3; assay: MTT cell viability, caspase-3 overexpressing cells vs parental line; details: caspase-3 high-expressing cells / parental cell line, 3 to 4 days
Protocol: as §1, §2, §3, §4, §5, §6, §7, §8, §9, §10, §11, §12, §13, §14

[18] = tested on: NIH3T3 cells overexpressing HNF1; assay: MTT cell viability, HNF1 overexpressing cells vs parental line; details: HNF1 high-expressing cells / parental cell line, 3 to 4 days
Protocol: as §1, §2, §3, §4, §5, §6, §7, §8, §9, §10, §11, §12, §13, §14

[19] = tested on: NIH3T3 cells overexpressing PKCalpha-KN; assay: MTT cell viability, PKCalpha-KN overexpressing cells vs parental line; details: 3 to 4 days
Protocol: as §1, §2, §3, §4, §5, §6, §7, §8, §9, §10, §11, §12, §13, §14

[20] = tested on: NIH3T3 cells overexpressing erbB2; assay: MTT cell viability, erbB2 overexpressing cells vs parental line; details: erbB2 high-expressing cells / parental cell line, 3 to 4 days
Protocol: as §1, §2, §3, §4, §5, §6, §7, §8, §9, §10, §11, §12, §13, §15

[21] = PKCalpha-KN (first of two lines) high-expressing cells / parental cell line
[22] = PKCalpha-KN (second of two lines) high-expressing cells / parental cell line

Row | Compound | logarithmic value of ratio of IC40 values [1] | logarithmic value of ratio of IC40 values [2] | logarithmic value of ratio of IC40 values [3] | logarithmic value of ratio of IC40 values [4] | logarithmic value of ratio of IC40 values [5] | logarithmic value of ratio of IC40 values [6] | logarithmic value of ratio of IC40 values [7] | logarithmic value of ratio of IC40 values [8] | logarithmic value of ratio of IC40 values [9] | logarithmic value of ratio of IC40 values [10] | logarithmic value of ratio of IC40 values [11] | logarithmic value of ratio of IC40 values [12] | logarithmic value of ratio of IC40 values [13] | logarithmic value of ratio of IC40 values [14] | logarithmic value of ratio of IC40 values [15] | logarithmic value of ratio of IC40 values [16] | logarithmic value of ratio of IC40 values [17] | logarithmic value of ratio of IC40 values [18] | logarithmic value of ratio of IC40 values [19, 21] | logarithmic value of ratio of IC40 values [19, 22] | further results
1 | CO[C@H]1[C@@H](OC)C[C@H](C)[C@@H](OC)C2=CC(=O)C=C(NC(=O)/C(C)=C/C=C\[C@H](OC)[C@@H](OC(N)=O)/C(C)=C/[C@@H]1C)C2=O [HMA, herbimycin A] | −0.35 | −0.20 | 0.38 | 0.00 | −0.12 | 0.13 | −0.35 | 0.00 | 0.00 | −0.10 | 0.10 | 0.42 | −0.18 | −0.05 | −0.05 | 0.00 | 0.08 | 0.161 | 0.09 | −0.10 | logarithmic value of ratio of IC40 values [20]: −0.55
2 | COC(=O)[C@@]1(O)C[C@H]2O[C@]1(C)n1c3ccccc3c3c4c(c5c6ccccc6n2c5c31)C(=O)NC4 [K252a] | 0.65 | −0.34 | 0.28 | 0.23 | −0.10 | 0.10 | −0.22 | 0.04 | 0.04 | 0.00 | 0.37 | 0.00 | −0.21 | −0.15 | −0.46 | −0.19 | 0.15 | −0.207 | 0.16 | 0.02 | logarithmic value of ratio of IC40 values [20]: 0.15
3 | C=C[C@]1(C)CC[C@@H](C(=C)C)C[C@H]1C(=C)C [b-elemene, β-elemene] | −0.26 | −0.09 | −0.14 | −0.14 | 0.08 | 0.00 | −0.35 | 0.16 | 0.11 | 0.00 | 0.26 | 0.52 | −0.07 | 0.05 | 0.04 | 0.07 | 0.28 | 0.02 | 0.07 | −0.07 | logarithmic value of ratio of IC40 values [20]: −0.46
